Measured values taken from patent publication US20240018166A1, “SULFONYL UREA NLRP3 INFLAMMASOME INHIBITORS” (Venatorx Pharmaceuticals, Inc., priority 2020, published 2024).

Assays:
[1] = MTT cell viability assay, THP-1 cells; assay type: cell-based; conditions: human, unstimulated THP-1 cells, read-out: THP-1 Cytotoxicity CC50
Method: In order to assess the cytotoxicity of the compounds, an MTT cell viability assay was performed in either unstimulated THP-1 or HepG2 cells as follows. 5×10^4 THP-1 or 5×10^3 HepG2 cells were seeded into each well of a 96-well plate in 90 μL of media. Compounds were added to cells as described for the IL-10 assay and returned to the incubator for an additional 72 hours. Next, 25 μL of MTT solution (5 mg/mL in sterile PBS) was added to each well. Plates were incubated for 3 hours at 37° C., 5% CO2. Next, for THP-1 cells, 100 μl of MTT solubilization solution (40% Dimethylformamide, 2% glacial acetic acid, 16% sodium dodecyl sulfate) was then added to each well and plates were incubated at room temperature in the dark overnight. For HepG2 cells, media was aspirated, 50 μL of DMSO was added and plates were mixed briefly with an orbital plate shaker. Absorbance at 570 nm was measured using a Perkin-Elmer EnVision plate reader.
Absorbance values were converted to percentage of vehicle-treated controls. Data was then analyzed using a non-linear regression (variable slope (four-parameter)) equation in GraphPad Prism 7.0.
Table 2 provides THP-1 cytotoxicity assay CC50 values for example compounds. A indicates CC50>10 μM; B indicates CC50 between 1 and 10 μM (inclusive); C indicates CC50<1 μM. NT, not tested.

IL-1β = IL-1β inhibition assay (ELISA/HTRF of culture supernatants); assay type: cell-based; conditions: Homo sapiens, PMA-differentiated THP-1 cells, tested 10 μM to 0.003 μM
Method: Human monocyte-like THP-1 cells were grown in RPMI media supplemented with 10% FBS (growth media) at 37° C., 5% CO2. Cell cultures were passaged every three days and maintained at a density of 5×10^5 to 1×10^6 cells per mL.
Compounds were prepared as 10 mM stock solutions in 100% DMSO. […] Each 200× dilution was then diluted 20-fold in growth media (step down dilution) to yield a 10× final assay concentration range. All compounds were tested over a final assay concentration range of 10 μM to 0.003 μM.
The level of IL-10 in supernatants from PMA-differentiated THP-1 cells was determined by ELISA using either the R&D Systems Human IL-1 beta/IL-1F2 Quantikine ELISA or the cisbio HTRF human IL 1 beta kit. Manufacturer's protocols were followed without deviation.
Background values were subtracted and resulting values were converted to percentage of vehicle-treated controls. Data was analyzed via GraphPad Prism 7.0 using a non-linear regression (variable slope (four-parameter)) equation.
Table 2 provides IL-10 ELISA EC50 values for example compounds. A indicates EC50>10 μM; B indicates EC50 between 1 and 10 μM (inclusive); C indicates EC50<1 μM.

Row | SMILES | CC50 at 72 h [1] | EC50 (IL-1β)
1 | O=C(Nc1c2c(cc3c1CCC3)CCC2)NS(=O)(=O)c1ccc(B(O)O)cc1 [Example 13, (4-(N-((1,2,3,5,6,7-hexahydro-s-indacen-4-yl)carbamoyl)sulfamoyl)phenyl)boronic acid] | > 10 µM | 1 to 10 µM
2 | CC1(C)[C@@H]2C[C@H]3OB(CCCc4cc(S(=O)(=O)NC(=O)Nc5c6c(cc7c5CCC7)CCC6)ccc4O)O[C@@]3(C)[C@H]1C2 [Example 49, N-((1,2,3,5,6,7-hexahydro-s-indacen-4-yl)carbamoyl)-4-hydroxy-3-(3-((3aS,4S,6S,7aR)-3a,5,5-trimethylhexahydro-4,6-methanobenzo[d][1,3,2]dioxaborol-2-yl)propyl)benzenesulfonamide] | > 10 µM | 1 to 10 µM
3 | CC(C)c1cccc(C(C)C)c1NC(=O)NS(=O)(=O)c1ccc(B(O)O)cc1 [Example 3, (4-(N-((2,6-diisopropylphenyl)carbamoyl)sulfamoyl)phenyl)boronic acid] | > 10 µM | 1 to 10 µM
4 | CC1(C)[C@@H]2C[C@H]3OB(c4cccc(S(=O)(=O)NC(=O)Nc5c6c(cc7c5CCC7)CCC6)c4)O[C@@]3(C)[C@H]1C2 [Example 2, N-((1,2,3,5,6,7-hexahydro-s-indacen-4-yl)carbamoyl)-3-((3aS,4S,6S,7aR)-3a,5,5-trimethylhexahydro-4,6-methanobenzo[d][1,3,2]dioxaborol-2-yl)benzenesulfonamide] | > 10 µM | 1 to 10 µM
5 | O=C(Nc1c2c(cc3c1CCC3)CCC2)NS(=O)(=O)c1cccc(B(O)O)c1 [Example 1, (3-(N-((1,2,3,5,6,7-hexahydro-s-indacen-4-yl)carbamoyl)sulfamoyl)phenyl)boronic acid] | > 10 µM | 1 to 10 µM
6 | CC(C)n1cc(S(=O)(=O)NC(=O)Nc2cc(B(O)O)ccc2C2CC2)cn1 [Example 21, (4-cyclopropyl-3-(3-((1-isopropyl-1H-pyrazol-4-yl)sulfonyl)ureido)phenyl)boronic acid] | 1 to 10 µM | > 10 µM
7 | CC(C)n1cc(S(=O)(=O)NC(=O)Nc2cc(B3OC(C)(C)C(C)(C)O3)ccc2C2CC2)cn1 [Example 20, N-((2-cyclopropyl-5-(4,4,5,5-tetramethyl-1,3,2-dioxaborolan-2-yl)phenyl)carbamoyl)-1-isopropyl-1H-pyrazole-4-sulfonamide] | > 10 µM | > 10 µM
8 | O=C(Nc1c2c(cc3c1CCC3)CCC2)NS(=O)(=O)c1ccc(B(O)O)s1 [Example 12, (5-(N-((1,2,3,5,6,7-hexahydro-s-indacen-4-yl)carbamoyl)sulfamoyl)thiophen-2-yl)boronic acid] | > 10 µM | 1 to 10 µM
9 | O=C(Nc1c2c(cc3c1CCC3)CCC2)NS(=O)(=O)c1ccc2c(c1)B(O)OC2=O [Example 36, N-((1,2,3,5,6,7-hexahydro-s-indacen-4-yl)carbamoyl)-1-hydroxy-3-oxo-1,3-dihydrobenzo[c][1,2]oxaborole-6-sulfonamide] | > 10 µM | > 10 µM
10 | CC(C)(O)c1coc(S(=O)(=O)NC(=O)Nc2c3c(cc4c2CCC4)CCC3)c1 [MCC-950, reference compound] | > 10 µM | < 1 µM
11 | CC1(C)[C@@H]2CC3OB(c4ccc(S(=O)(=O)NC(=O)Nc5c6c(cc7c5CCC7)CCC6)cc4)O[C@@]3(C)[C@H]1C2 (stereo partly drawn) [Example 14, N-((1,2,3,5,6,7-hexahydro-s-indacen-4-yl)carbamoyl)-4-((3aS,4S,6S)-3a,5,5-trimethylhexahydro-4,6-methanobenzo[d][1,3,2]dioxaborol-2-yl)benzenesulfonamide] | > 10 µM | 1 to 10 µM
12 | CC(C)c1cccc(C(C)C)c1NC(=O)NS(=O)(=O)c1ccccc1B(O)O [Example 11, (2-(N-((2,6-diisopropylphenyl)carbamoyl)sulfamoyl)phenyl)boronic acid] | > 10 µM | > 10 µM
13 | CC(C)n1cc(S(=O)(=O)NC(=O)Nc2cc(B3OC(C)(C)C(C)(C)O3)ccc2C(C)(C)C)cn1 [Example 22, N-((2-(tert-butyl)-5-(4,4,5,5-tetramethyl-1,3,2-dioxaborolan-2-yl)phenyl)carbamoyl)-1-isopropyl-1H-pyrazole-4-sulfonamide] | > 10 µM | > 10 µM
14 | COc1ccc(B2OC(C)(C)C(C)(C)O2)cc1S(=O)(=O)NC(=O)Nc1c(C(C)C)cccc1C(C)C [Example 9, N-((2,6-diisopropylphenyl)carbamoyl)-2-methoxy-5-(4,4,5,5-tetramethyl-1,3,2-dioxaborolan-2-yl)benzenesulfonamide] | > 10 µM | > 10 µM
15 | COc1ccc(S(=O)(=O)NC(=O)Nc2c3c(cc4c2CCC4)CCC3)cc1CB(O)O [Example 39, (5-(N-((1,2,3,5,6,7-hexahydro-s-indacen-4-yl)carbamoyl)sulfamoyl)-2-methoxybenzyl)boronic acid] | > 10 µM | 1 to 10 µM
16 | CC(C)c1cc(B2OC(C)(C)C(C)(C)O2)ccc1NC(=O)NS(=O)(=O)c1cnn(C(C)C)c1 [Example 18, 1-isopropyl-N-((2-isopropyl-4-(4,4,5,5-tetramethyl-1,3,2-dioxaborolan-2-yl)phenyl)carbamoyl)-1H-pyrazole-4-sulfonamide] | > 10 µM | > 10 µM
17 | CC(C)c1cc(B(O)O)cc(C(C)C)c1NC(=O)NS(=O)(=O)c1ccn(C(C)C)n1 [Example 31, (3,5-diisopropyl-4-(3-((1-isopropyl-1H-pyrazol-3-yl)sulfonyl)ureido)phenyl)boronic acid] | > 10 µM | > 10 µM
18 | CC1(C)[C@@H]2C[C@H]3OB(CCCc4ccc(S(=O)(=O)NC(=O)Nc5c6c(cc7c5CCC7)CCC6)cc4O)O[C@@]3(C)[C@H]1C2 [Example 48, N-((1,2,3,5,6,7-hexahydro-s-indacen-4-yl)carbamoyl)-3-hydroxy-4-(3-((3aS,4S,6S,7aR)-3a,5,5-trimethylhexahydro-4,6-methanobenzo[d][1,3,2]dioxaborol-2-yl)propyl)benzenesulfonamide] | > 10 µM | 1 to 10 µM
19 | COc1ccc(S(=O)(=O)NC(=O)Nc2c3c(cc4c2CCC4)CCC3)cc1CCB1OC(C)(C)C(C)(C)O1 [Example 32, N-((1,2,3,5,6,7-hexahydro-s-indacen-4-yl)carbamoyl)-4-methoxy-3-(2-(4,4,5,5-tetramethyl-1,3,2-dioxaborolan-2-yl)ethyl)benzenesulfonamide] | > 10 µM | 1 to 10 µM
20 | Cc1ccc(S(=O)(=O)NC(=O)Nc2c(C(C)C)cccc2C(C)C)cc1B(O)O [Example 7, (5-(N-((2,6-diisopropylphenyl)carbamoyl)sulfamoyl)-2-methylphenyl)boronic acid] | > 10 µM | 1 to 10 µM
21 | CC1(C)OB(CCCc2cccc(S(=O)(=O)NC(=O)Nc3c4c(cc5c3CCC5)CCC4)c2)OC1(C)C [Example 46, N-((1,2,3,5,6,7-hexahydro-s-indacen-4-yl)carbamoyl)-3-(3-(4,4,5,5-tetramethyl-1,3,2-dioxaborolan-2-yl)propyl)benzenesulfonamide] | > 10 µM | 1 to 10 µM
22 | CC(C)c1cccc(C(C)C)c1NC(=O)NS(=O)(=O)c1ccc(B(O)O)s1 [Example 5, (5-(N-((2,6-diisopropylphenyl)carbamoyl)sulfamoyl)thiophen-2-yl)boronic acid] | > 10 µM | 1 to 10 µM
23 | O=C(Nc1c2c(cc3c1CCC3)CCC2)NS(=O)(=O)c1ccc2c(c1)CCB(O)O2 [Example 33, N-((1,2,3,5,6,7-hexahydro-s-indacen-4-yl)carbamoyl)-2-hydroxy-3,4-dihydro-2H-benzo[e][1,2]oxaborinine-6-sulfonamide] | > 10 µM | 1 to 10 µM
24 | O=C(Nc1c2c(cc3c1CCC3)CCC2)NS(=O)(=O)c1ccccc1B(O)O [Example 10, (2-(N-((1,2,3,5,6,7-hexahydro-s-indacen-4-yl)carbamoyl)sulfamoyl)phenyl)boronic acid] | > 10 µM | > 10 µM
25 | CC(C)n1cc(S(=O)(=O)NC(=O)Nc2cc(B(O)O)ccc2C(C)(C)C)cn1 [Example 23, (4-(tert-butyl)-3-(3-((1-isopropyl-1H-pyrazol-4-yl)sulfonyl)ureido)phenyl)boronic acid] | > 10 µM | > 10 µM
26 | Cc1c(B(O)O)cccc1S(=O)(=O)NC(=O)Nc1c2c(cc3c1CCC3)CCC2 [Example 15, (3-(N-((1,2,3,5,6,7-hexahydro-s-indacen-4-yl)carbamoyl)sulfamoyl)-2-methylphenyl)boronic acid] | > 10 µM | 1 to 10 µM
